From patent publication US20240132514A1, “PYRIDINE DERIVATIVES AS MODULATORS OF SORTILIN ACTIVITY” (Insusense ApS, priority 2021, published 2024) come the findings set out here.

The IC50 is the concentration at which inhibition is half-maximal. The Ki is a dissociation constant, usually derived from enzyme kinetics or from competition with a known ligand.

The experiment has as its target human full length sortilin (Homo sapiens (Human), UniProt Q99523). Briefly: Human sortilin neurotensin scintillation proximity (SPA) binding assay. Conditions: for IC50: 150 nM His-tagged human full length sortilin, SPA. As for the experimental part:
NTS, which is a 13 amino acid neuropeptide, is a sortilin ligand. The IC50 is a measure of the amount of the compound required to inhibit the binding of NTS to sortilin by 50%. The skilled person will recognise that the lower the IC50 value, the less of the compound needed to achieve the desired effect, and as a result, the chances of undesirable off-target effects are reduced.
The compound affinity was determined by measuring the inhibition of ^3H-neurotensin and/or ^125I-neurotensin binding to human full length sortilin using a Scintillation Proximity Assay (SPA) format.
The human sortilin SPA binding assay was performed in a total volume of 40 μl in 50 mM HEPES pH 7.4 assay buffer containing 100 mM NaCl, 2.0 mM CaCl2, 0.1% (v:v) BSA and 0.1% (v:v)Tween-20. Varying concentration of test compounds where pre-incubated for 30 min at RT with 150 nM of c-terminal hexahistidine- human full length Sortilin (RD Systems). […] 0.1 mg PVT copper HIS-tag imaging beads (Perkin Elmer) was added and the plate was agitated at 400 rpm in the dark for 1 hr. The SPA beads were allowed a minimum 2 hours settling time before the plate was read on a Hidex Sense 425-301 scintillation reader with a 45 sec exposure time. Concentration-response evaluation of test compounds was performed with 8 different concentrations of compound (covering 3 decades). […] The compound potency results were converted to inhibition constant Ki values (nM) derived from calculated IC50 values converted to Ki values using the Cheng-Prusoff equation (Ki=IC50/(I+(L/Kd))).
(In general: In a scintillation proximity assay essentially only radioactivity close to the scintillant gives light.)

The mark [1] stands for this setting: 5 nM [3H]-Neurotensin radioligand, read-out: hSortilin NTS Binding IC50 (nM) [3H] neurotensin.

SMILES strings stand for the structures. Read-outs that look alike come from different tables or passages of the source.

Sequence of human full length sortilin (Q99523 78-755): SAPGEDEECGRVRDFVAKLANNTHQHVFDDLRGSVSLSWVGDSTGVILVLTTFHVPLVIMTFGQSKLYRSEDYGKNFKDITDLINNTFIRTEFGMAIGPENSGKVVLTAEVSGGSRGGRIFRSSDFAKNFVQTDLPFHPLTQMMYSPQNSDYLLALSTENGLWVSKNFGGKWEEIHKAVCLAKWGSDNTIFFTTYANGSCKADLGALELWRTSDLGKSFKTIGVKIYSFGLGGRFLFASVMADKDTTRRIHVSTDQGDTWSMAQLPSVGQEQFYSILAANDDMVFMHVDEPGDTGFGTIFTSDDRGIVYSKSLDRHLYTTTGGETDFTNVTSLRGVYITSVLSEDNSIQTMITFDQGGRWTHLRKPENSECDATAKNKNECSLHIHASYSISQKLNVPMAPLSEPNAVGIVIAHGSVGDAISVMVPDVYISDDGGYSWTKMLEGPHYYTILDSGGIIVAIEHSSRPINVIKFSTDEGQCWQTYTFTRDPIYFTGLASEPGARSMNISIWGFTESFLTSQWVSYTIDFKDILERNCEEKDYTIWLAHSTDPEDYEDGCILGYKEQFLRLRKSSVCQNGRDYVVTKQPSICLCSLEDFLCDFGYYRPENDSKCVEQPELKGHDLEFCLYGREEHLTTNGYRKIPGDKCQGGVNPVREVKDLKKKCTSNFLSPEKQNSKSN

In the case of `O=C(O)c1cc(C(F)(F)F)ccc1C(=O)Nc1ccc2c(n1)COCC2` [Example 2, 2-({5H,6H,8H-pyrano[3,4-b]pyridin-2-yl}carbamoyl)-5-(trifluoromethyl)benzoic acid], the IC50 was found to be 105 nM (0.35 nM [125I]-Neurotensin radioligand, read-out: hSortilin NTS binding IC50 (nM) [125I] neurotensin) and 60 nM under setting [1].
`O=C(O)c1cc(C(F)(F)F)ccc1C(=O)Nc1cccc(CO)n1` [Example 3, 2-{[6-(hydroxymethyl)pyridin-2-yl]carbamoyl}-5-(trifluoromethyl)benzoic acid]: the IC50 under setting [1] stood at 340 nM. Besides, the Ki (derived from IC50 using the Cheng-Prusoff equation, Kd of neurotensin […], read-out: hSortilin Ki) was 340 nM.
For `COCc1cccc(NC(=O)c2ccc(C(F)(F)F)cc2C(=O)O)n1` [Example 24, 2-{[6-(methoxymethyl)pyridin-2-yl]carbamoyl}-5-(trifluoromethyl)benzoic acid], the IC50 under setting [1] amounted to 725 nM.
